Here are results for three compounds from patent publication US20230255975A1, “METHODS FOR TREATING CANCER WITH COMBINATION THERAPIES” (Celgene Corporation, priority 2020, published 2023).

What all share (type): cell-based
For one assay, the system named is K12PE-PR cell line. Description: Proliferation assay. The procedure: (§1) Proliferation and viability assays: Cell growth curves were determined by monitoring the viability of cells with Trypan blue exclusion on a Vi-Cell-XR (Becton Dickinson, Franklin Lakes, N.J., USA). Proliferation assays were performed in triplicate at least three times (n=3) using (3H)-thymidine incorporation. All data were plotted and analyzed using GraphPad Prism 7 (GraphPad Software, La Jolla, Calif., USA) software, represented as the mean with an error determined as ±s.d.
(§2) Proliferation and viability assay. Cell growth curves were determined by monitoring the viability of cells with Trypan blue exclusion on a Vi-Cell-XR (Becton Dickinson, Franklin Lakes, N.J., USA). Cell lines were plated in triplicate in 96-well round-bottom plates with the indicated drug concentrations or knockdown cells. […] All data were plotted and analyzed using GraphPad Prism 7 (GraphPad Software, La Jolla, Calif., USA) software, represented as the mean with an error determined as ±s.d.

For another assay, the system named is AMO1 cell line. Description: Proliferation assay. The procedure:
as §1, §2

The test system of assay [1] is AMO1-PR (pomalidomide resistant) cell line. Description: Proliferation assay. As for the experimental part:
as §1, §2

The test system of the next assay is K12PE cell line. Description: Proliferation assay. The procedure: as §1, §2
Assay [2] deals with FOXM1 in AMO1-PR cell line. Description: FOXM1 expression after BIRC5 inhibition. The settings on record: FIG. 26B. The source says: (§3) Inhibition of BIRC5 by YM155 also downregulates FOXM1 and pro-survival signaling.
In assay [3] the test system is FOXM1 in K12PE-PR cell line. Description: FOXM1 expression after BIRC5 inhibition. The settings on record: FIG. 26B.
Excerpt: as §3

The test system of assay [4] is BIRC5 (Survivin) in MM1.S cell line. Description: BIRC5 levels in response to Compound 5. As to conditions: 48 and 72 hours, followed by onset of apoptosis. The procedure: BIRC5 levels decreased in response to Compound 5 treatment at 48 and 72 hours, followed by an onset of apoptosis in MM1.S cell line (FIG. 23B).
The subject of a further assay is phospho Ser10-histone H3. Description: phospho Ser10-histone H3 (G2-M marker) flow cytometry. The settings on record: vehicle 16.5. As for the experimental part:
(§4) Flow cytometry: Annexin-V Alexa Fluor 488-conjugated antibody (Thermo Scientific, Waltham, Mass., USA) and To-Pro-3 (Thermo Scientific, Waltham, Mass., USA) were used according to the manufacturer's protocol and processed using Flow Jo software for at least three independent experiments. For cell cycle analysis, cells were stained with Propidium Iodide (PI) staining kit (Abcam, Cambridge, Mass., USA) and analysis was performed on Flow Jo V10 software. Staining of mitotic marker pHH3-Ser^10 was also performed by pHH3-Ser^10 and PI dual staining.
(§5) The changes in phospho Ser10-histone H3 which is a specific marker for G2-M phase using flow cytometry were measured. […] Nocodazole synchronizes cells in G2-M phase of cell cycle. At time points 30 minutes, 2 hours and 6 hours post rescue from overnight Nocodazole treatment, PLK1 levels were higher compared to vehicle condition (FIG. 3). Then, due to rescue from cell cycle synchronization post Nocodazole treatment, PLK1 levels normalized. In response to Compound 5 treatment, while Ikaros degradation began to happen after 30 minutes of treatments, downregulation of PLK1 and CDC25C levels was evident at 48 hours post treatment. In response to Nocodazole and Compound 5 combination treatment, the decrease in PLK1 levels was accelerated. Changes in cleaved caspase 3 inversely correlated with PLK1 levels, with an increase in cleaved caspase 3 at 48 and 72 hours post Compound 5 treatment with a decrease in PLK1 levels. Cell cycle studies matched with these time points. […] In case of Nocodazole and Compound 5 combination treatment, an accelerated decrease in G2-M cells and a higher increase in sub-G1 cells was observed.
(Flow cytometry measures light scatter and fluorescence of single cells or particles in a stream.)

Assay [5] concerns PLK1 signaling in MM1.S cells. Description: Immunoblot of PLK1 signaling. As to conditions: FIG. 2C. The procedure:
Immunoblotting: Immunoblot analysis was performed using WES kits, (Protein Simple, San Jose, Calif., USA) at least two times each (n≥2), where the best representative is shown.
The effects of pomalidomide in isogenic sensitive (EJM) and resistant (EJM-PR) and MM1.S cell lines was analyzed. […] To determine the role of PLK1 in pomalidomide response, EJM and EJM-PR cell lines were treated with pomalidomide and analyzed changes in PLK1 levels and downstream signaling. […] The changes in PLK1 transcript levels were further examined in response to pomalidomide treatment in MM1. […] Confocal microscopy was performed to study changes in PLK1 and CDC25C staining in MM1.S cells and a decrease in PLK1 levels and simultaneous decrease in CDC25C staining in response to pomalidomide and Compound 5 treatments was observed. […] Further analysis of the ChIP-seq datasets of Aiolos confirmed binding of Aiolos on TSS of PLK1 with overlapping transcriptional activation H3K27Ac signature extrapolated from publicly available ChIP-seq datasets in GM12878 cell line (Encode project). Since changes in PLK1 levels are due to decrease in PLK1 transcription in response to antiproliferative compounds, the effects of Aiolos and Ikaros knockdowns on PLK1 levels using MM1.S cells with inducible expression of Aiolos and Ikaros shRNAs were analyzed. Both Aiolos and Ikaros knock down lead to a decrease in PLK1 levels (FIG. 2F), indicating transcriptional regulation of PLK1 by substrates of Cereblon.

In the next assay the test system is MM cell lines. Description: Cell cycle analysis (PI staining, flow cytometry) in response to Compound 5. The settings on record: for sub-G1 population: vehicle 5.02, cell line not named; for G2-M population: vehicle 16.3; for G0-G1 population: vehicle 69.2. As for the experimental part: as §4, §5
Assay [6] relates to AMO1 NEK2 shRNA (NEK2 knocked-down) cells. Description: Proliferation assay in NEK2 knocked-down cells. The procedure: (§6) Proliferation and viability assay. Cell growth curves were determined by monitoring the viability of cells with Trypan blue exclusion on a Vi-Cell-XR (Becton Dickinson, Franklin Lakes, N.J., USA). Cell lines were plated in triplicate in 96-well round-bottom plates with the indicated drug concentrations or knockdown cells. Proliferation assays were performed in triplicate at least three times (n=3) using either the WST-1 tetrazolium salt (Roche Applied Science) reagent used according to the manufacturer's specifications or by (3H)-thymidine incorporation as previously described (Bjorklund et al., Blood Cancer Journal 5, e354, 2015). All data were plotted and analyzed using GraphPad Prism 7 (GraphPad Software, La Jolla, Calif., USA) software, represented as the mean with an error determined as ±s.d.
(§7) To further confirm the synergistic effect, shRNA knockdown was combined with either Compound 5 or Compound 6 treatment. Expression of control and NEK2 shRNA in AMO1 cell lines was induced, followed by exposure of the cells to increasing concentrations of Compound 5 and Compound 6. The results were measured through a proliferation assay.

The subject of the next assay is AMO1 control shRNA cells. Description: Proliferation assay in control shRNA cells. As to conditions: Homo sapiens; control shRNA AMO1 cells; read-out: IC50, proliferation. The procedure: as §6, §7
A further assay concerns AMO1 cells. Description: Apoptosis by Annexin V and Topro staining. The settings on record: AMO-1 cells. The procedure:
as §4
The PLK1 inhibitor BI2536 and Compound 5 were tested for their activity as individual agents and in combination in AMO1 parental and AMO1-PR cell lines. […] Changes in apoptosis were analyzed using the single agent treatments and their combination using Annexin V and Topro staining. […] Changes in Ikaros and pro-survival signaling in these cell lines was analyzed in response to BI2536 and Compound 5 after 24 and 72 hours of treatment (FIG. 5K).

A further assay relates to U266 cell line. Description: Proliferation assay. As to conditions: Homo sapiens, U-266, BRAF K601N, p-ERK High, read-out: IC50 (μM) Trametinib. As for the experimental part: as §1
For a further assay, the system named is KMM-1 cell line. Description: Proliferation assay. As to conditions: NRAS G13D, p-ERK High, read-out: IC50 (μM) Trametinib. As for the experimental part:
as §1

A further assay deals with KARPAS-620 cell line. Description: Proliferation assay. The settings on record: p-ERK High, read-out: IC50 (μM) Trametinib. As for the experimental part:
as §1

Another assay concerns MOLP-8 cell line. Description: Proliferation assay. As to conditions: Homo sapiens, KRAS K180del, NRAS p.Q61L, p-ERK High, read-out: IC50 (μM) Trametinib. As for the experimental part:
as §1

In the next assay the test system is KMS-20 cell line. Description: Proliferation assay. The settings on record: KRAS G12S, p-ERK High, read-out: IC50 (μM) Trametinib. As for the experimental part:
as §1

A further assay deals with Mc-CAR cell line. Description: Proliferation assay. The settings on record: McCAR; WT; p-ERK High; read-out: IC50 (μM) Trametinib. As for the experimental part: as §1, §6
The subject of the next assay is H929 cell line. Description: Proliferation assay. The settings on record: Homo sapiens, NCI-H929, NRAS G13D, p-ERK Medium, read-out: IC50 (μM) Trametinib. The procedure:
as §1, §6

Usually EC50 stands for the concentration needed to bring the measured effect to its halfway point. Lower therefore signals greater potency. Take `COCCn1c2c([n+](Cc3cnccn3)c1C)C(=O)c1ccccc1C2=O.[Br-]` [YM155, 1-(2-methoxyethyl)-2-methyl-4,9-dioxo-3-(pyrazin-2-ylmethyl)-4,9-dihydro-1H-naphtho[2,3-d]imidazol-3-ium bromide]: the EC50 turned out to be 1.07 nM in the assay on K12PE-PR cell line (K12PE-PR, BIRC5 inhibitor); 1.09 nM with AMO1 cell line (Homo sapiens, AMO1, BIRC5 inhibitor); 0.12 nM in [1] (BIRC5 inhibitor); 1.47 nM in the assay on K12PE cell line (K12PE, BIRC5 inhibitor). Also, the FOXM1 expression entry in assay [2] and in [3] was “downregulated FOXM1 expression in a dose dependent manner” in each case.
As for `O=C1CC[C@H](N2Cc3c(OCc4ccc(CN5CCOCC5)cc4)cccc3C2=O)C(=O)N1` [Compound 5, (S)-3-(4-((4-(morpholinomethyl)benzyl)oxy)-1-oxoisoindolin-2-yl)piperidine-2,6-dione], the BIRC5 levels entry in [4] is on record as “decreased”. Also, the “levels of phospho Ser10-histone H3” value in the assay with phospho Ser10-histone H3 (10 nM) stood at 9.3; in the assay on phospho Ser10-histone H3 (30 nM) it was 6.37; in the assay on phospho Ser10-histone H3 (100 nM), 4.53. Further, the “Dose giving decrease in PLK1 levels and downstream signaling relative to pomalidomide” value in [5] is “ten times lower dose”. In addition, the PLK1 signaling entry in assay [5] (MMS.1 cells, increasing concentrations) is listed as “dose dependent decrease”. For the same compound, the “Synergy of combination with JQ1 on proliferation” value in the assay with K12PE-PR cell line (Pom resistant K12PE-PR, in combination with JQ1) is on record as “synergistically decreased proliferation”. Moreover, the “Synergy (Calcusyn) with NEK2 inhibitors (JH295 and rac-CCT 250863) on proliferation” value with AMO1 cell line (AMO1, NEK2 inhibitor 0.016-10 μM) is “strong synergy”; in assay [1] (NEK2 inhibitor 0.016-10 μM), “strong synergy”. Also, the “Combination analysis (Calcusyn) with YM155 on proliferation” value in the assay with AMO1 cell line (AMO1, in combination with YM155) is reported as “synergistic activity”; in assay [1] (in combination with YM155) it was “synergistic activity”. Besides, the “Synergy with trametinib on proliferation” value with AMO1 cell line (AMO1, in combination with trametinib) is “strong synergy”; in assay [1] (in combination with trametinib), “strong synergy”. For the same compound, the “Synergy analysis (Calcusyn) of combination with JQ1 on proliferation” value in the assay on K12PE cell line (K12PE cells, in combination with JQ1) was “synergistic”. Moreover, the sub-G1 population in the assay on MM cell lines (10 nM) amounted to 4.98; in the assay on MM cell lines (30 nM) it was 11.3; with MM cell lines (100 nM), 13.9. Moreover, the G2-M population in the assay with MM cell lines (10 nM) was 12.3; with MM cell lines (30 nM), 6.94; with MM cell lines (100 nM), 6.27. Further, the G0-G1 population in the assay with MM cell lines (10 nM) is given as 75.8; with MM cell lines (30 nM) it was 78.3; with MM cell lines (100 nM), 75.1. In addition, the IC50 amounted to 18.7 nM in assay [6] (Homo sapiens, NEK2 knocked-down AMO1 cells) and 105 nM with AMO1 control shRNA cells. In addition, the “Increase of activity by NEK2 knockdown in comparison to control shRNA cell line” value in [6] (IC50 control cells vs NEK2 knocked-down cells) is listed as 5 fold. The late apoptosis with AMO1 cells (vehicle 2.24%) is listed as 3.07%. Moreover, the early apoptosis with AMO1 cells (vehicle 2.69%) was 4.86%.
Take `CC(=O)Nc1cccc(-n2c(=O)n(C3CC3)c(=O)c3c(Nc4ccc(I)cc4F)n(C)c(=O)c(C)c32)c1` [Trametinib]: the IC50 in the assay with AMO1 cell line (Homo sapiens, Amo1, KRAS146T, p-ERK High, read-out: IC50 (μM) Trametinib) was found to be 0.0012 µM; with U266 cell line, 0.000353 µM; in the assay with KMM-1 cell line it was 0.00169 µM; with KARPAS-620 cell line it was 0.07 nM; in the assay with MOLP-8 cell line, 0.0117 µM; with KMS-20 cell line, 0.00222 µM. For the same compound, the IC50 in the assay with Mc-CAR cell line is 0.0031 µM; in the assay on H929 cell line, 0.00328 µM.
